# Measured values: US11236102B2, “Oxabicycloheptane prodrugs” (Lixte Biotechnology, Inc., priority 2015, dated 2022)
# Entries after “also recorded” stand apart in the source; their conditions may differ.
# Key:
# [1] = Whole blood stability (half-life) and metabolite formation; type: in vitro ADME, rat, dog, monkey and human; details: cross species
# Protocol: The stability (whole blood, liver S9, SGF, SIF, and PBS buffer) and MDCK-MDR1 monolayer permeability of LB100, LB-100 Carbonate and LB-100 POM were evaluated.
# Samples were analyzed by LC-MS/MS using a SCIEX QTrap 5500 mass spectrometer coupled with an Agilent 1290 HPLC Infinity series, a CTC PAL chilled autosampler, all controlled by Analyst software. After separation on a C18 reverse phase HPLC column (Acquity UPLC HSS T3, 1.8, 2.1×50 mm) using an acetonitrile-water gradient system, peaks were analyzed by mass spectrometry (MS) using […] ionization in MRM mode.
# Whole Blood Stability: Experimental Conditions Experimental Procedure: The stock solution was first diluted in acetonitrile at a concentration that is 100× of the desired final concentration. It was incubated in duplicate with whole blood at 37° C. At indicated times, an aliquot was removed from each experimental and control reaction and mixed with three volumes of ice-cold Stop Solution (methanol containing propranolol as internal standard). Stopped reactions were incubated at least ten minutes at −20° C. The samples were centrifuged to remove precipitated protein, and the supernatants were analyzed by LC-MS/MS to quantitate the remaining parent and the formation of metabolites.
# Data were converted to % remaining by dividing by the time zero concentration value. Data were fit to a first-order decay model to determine half-life.
# [2] = Pharmacokinetic study of 100 (iv 0.5, 1.0, 1.5 mg/kg) in SD rats: 100 and endothal in plasma, liver, brain; type: in vivo; details: for Endothal brain concentration / Endothal plasma concentration: SD rats
# Protocol: 100 was administrated via iv route at 0.5, 1.0 and 1.5 mg/kg into SD rats. The blood, liver and brain tissue samples were collected at predetermined times from rats.
# Twelve (12) female SD rats per group were dosed by iv with 100. The rats were fasted overnight prior to dosing, with free access to water. Foods were withheld for 2 hours post-dose. Blood, liver and brain tissue samples in two animals each group were collected at each time point, within 10% of the scheduled time for each time point. Two extra animals were used for analytic method development. Blood (>0.3 mL) were collected via aorta abdominalis in anaesthetic animals into tubes containing heparin at 15 min, 1, 2, 6, 10 and 24 hours after iv administration. Liver and brain tissues were collected immediately after animal death. The liver and brain tissues were excised and rinsed with cold saline to avoid blood residual. Upon collection, each sample was placed on ice and the blood samples were subsequently centrifuged (4° C., 11000 rpm, 5 min) to separate plasma. The obtained plasma, liver and brain tissue samples were stored at −70° C. until LC-MS/MS analysis.
# AUC0-∞ (AUCINF) is the area under the plasma concentration-time curve with last concentration extrapolated based on the elimination rate constant.
# in vivo = details: rat, iv, 1.4 mg/kg; for Kp at 0.25 hr / Kp at 1 hr / Kp at 2 hr: Liver-plasma concentration ratio of Endothal
# Protocol: 113 was dissolved in 4% NaHCO3 in saline for IV administration. The detailed procedure of dosing solution preparation was presented in Appendix I.
# 15 animals were placed on the study. The animals in IV arm were free access to food and water. For PO dose group, the animals were fasted overnight prior to dosing and the food was resumed 4 hours postdose.
# The IV injection was conducted via foot dorsal vein. PO via oral gavage.
# Blood collection: The animal is restrained manually. Approximately 200 μL of blood/time point is collected into sodium heparin tube via cardiac puncture for terminal bleeding (anesthetized under carbon dioxide). Blood sample will be put on ice and centrifuged to obtain plasma sample (2000 g, 5 min under 4° C.) within 10 minutes.
# Liver collection: The animal will be euthanized with carbon dioxide inhalation. Open abdominal cavity with scissor to expose internal organs. Hold the carcass in an upright position and allow the organs to fall forward. Cut the connective tissues and remove the organs. Then the organs are rinsed with cold saline, dried on filtrate paper, placed into a screw-top tube and weighed, snap frozen by placing into dry-ice immediately.
# Brain collection: Make a mid-line incision in the animals scalp and retract the skin. Using small bone cutters and rongeurs, remove the skull overlying the brain. Remove the brain using a spatula and rinse with cold saline, dried on filtrate paper, placed into a screw-top tube and weighed, snap frozen by placing into dry-ice immediately. […] Plasma, brain and liver samples were stored at approximately −80° C. until analysis. The backup samples will be discarded after three weeks after in-life completion unless requested. The unused dosing solutions will be discarded within three weeks after completion of the study.
# Pharmacokinetic Analysis Software: The PK parameters were determined by non-compartmental model of non-compartmental analysis tool, Pharsight Phoenix WinNonlin® 6.2 software. […] Concentration data within 80%-120% of LLOQ was considered within normal instrumental variation and presented in the results. Terminal t1/2 calculation: Time points were automatic selected by “best fit” model for terminal half life estimation as the first option. Manual selection was applied when “best fit” could not well define the terminal phase. Results
# [3] = 100 iv 0.5 mg/kg, 24 hr, individual rats
# [4] = female, Sprague-Dawley, rat, in vivo, iv, 1.5 mg/kg
# [5] = male, SD, liver concentration of Endothal
structure (smiles),measurement,setting,value
COC(=O)C1C2CCC(O2)C1C(=O)N1CCN(C)CC1 (stereo not drawn) [Compound 151],metabolite formation in whole blood half-life study,[1],No metabolites were detected
"O=C(O)C1C2CCC(O2)C1C(=O)O (stereo not drawn) [Endothal, 7-oxabicyclo[2.2.1]heptane-2,3-dicarboxylic acid]",Endothal brain concentration,"[2]; 100 iv 0.5 mg/kg, 0.25 hr, individual rats",BLQ
same,Endothal brain concentration,"[2]; 100 iv 0.5 mg/kg, 0.25 hr, mean",BLQ
same,Endothal brain concentration,"[2]; 100 iv 0.5 mg/kg, 1 hr, individual rats",BLQ
same,Endothal brain concentration,"[2]; 100 iv 0.5 mg/kg, 1 hr, mean",BLQ
same,Endothal brain concentration,"[2]; 100 iv 0.5 mg/kg, 2 hr, individual rats",BLQ
same,Endothal brain concentration,"[2]; 100 iv 0.5 mg/kg, 2 hr, mean",BLQ
same,Endothal brain concentration,"[2]; 100 iv 0.5 mg/kg, 6 hr, individual rats",BLQ
same,Endothal plasma concentration,"[2]; 100 iv 0.5 mg/kg, 6 hr, individual rats, 0.5 mg/kg",BLQ
same,Endothal brain concentration,"[2]; 100 iv 0.5 mg/kg, 6 hr, mean",BLQ
same,Endothal brain concentration,"[2]; 100 iv 0.5 mg/kg, 10 hr, individual rats",BLQ
same,Endothal brain concentration,"[2]; 100 iv 0.5 mg/kg, 10 hr, mean",BLQ
same,Endothal brain concentration,[2]; [3],BLQ
same,Endothal plasma concentration,[2]; [3],BLQ
same,Endothal brain concentration,"[2]; 100 iv 0.5 mg/kg, 24 hr, mean",BLQ
same,Endothal plasma concentration,"[2]; 100 iv 0.5 mg/kg, 24 hr, mean",BLQ
same,Endothal brain concentration,"[2]; 100 iv 1.0 mg/kg, 0.25 hr, individual rats",BLQ
same,Endothal brain concentration,"[2]; 100 iv 1.0 mg/kg, 0.25 hr, mean",BLQ
same,Endothal brain concentration,"[2]; 100 iv 1.0 mg/kg, 1 hr, individual rats",BLQ
same,Endothal brain concentration,"[2]; 100 iv 1.0 mg/kg, 1 hr, mean",BLQ
same,Endothal brain concentration,"[2]; 100 iv 1.0 mg/kg, 2 hr, individual rats",BLQ
same,Endothal brain concentration,"[2]; 100 iv 1.0 mg/kg, 2 hr, mean",BLQ
same,Endothal brain concentration,"[2]; 100 iv 1.0 mg/kg, 6 hr, individual rats",BLQ
same,Endothal brain concentration,"[2]; 100 iv 1.0 mg/kg, 6 hr, mean",BLQ
same,Endothal brain concentration,"[2]; 100 iv 1.0 mg/kg, 10 hr, individual rats",BLQ
same,Endothal brain concentration,"[2]; 100 iv 1.0 mg/kg, 10 hr, mean",BLQ
same,Endothal brain concentration,"[2]; 100 iv 1.0 mg/kg, 24 hr, individual rats",BLQ
same,Endothal brain concentration,"[2]; 100 iv 1.0 mg/kg, 24 hr, mean",BLO
same,Endothal brain concentration,"[2]; 100 iv 1.5 mg/kg, 0.25 hr, individual rats",BLQ
same,Endothal brain concentration,"[2]; 100 iv 1.5 mg/kg, 0.25 hr, mean",BLQ
same,Endothal brain concentration,"[2]; 100 iv 1.5 mg/kg, 1 hr, individual rats",BLQ
same,Endothal brain concentration,"[2]; 100 iv 1.5 mg/kg, 1 hr, mean",BLQ
same,Endothal brain concentration,"[2]; 100 iv 1.5 mg/kg, 2 hr, individual rats",BLQ
same,Endothal brain concentration,"[2]; 100 iv 1.5 mg/kg, 2 hr, mean",BLQ
same,Endothal brain concentration,"[2]; 100 iv 1.5 mg/kg, 6 hr, individual rats",BLQ
same,Endothal brain concentration,"[2]; 100 iv 1.5 mg/kg, 6 hr, mean",BLQ
same,Endothal brain concentration,"[2]; 100 iv 1.5 mg/kg, 10 hr, individual rats",BLQ
same,Endothal brain concentration,"[2]; 100 iv 1.5 mg/kg, 10 hr, mean",BLQ
same,Endothal brain concentration,"[2]; 100 iv 1.5 mg/kg, 24 hr, individual rats",BLQ
same,Endothal brain concentration,"[2]; 100 iv 1.5 mg/kg, 24 hr, mean",BLQ
same,half-life,"[2]; Sprague-Dawley, rat, in vivo",~6 h
same,detectability in brain samples,"[2]; endothal after single iv 100 at 0.5, 1.0 and 1.5 mg/kg",not detectable; also recorded: undetectable
same,AUClast in plasma,[2]; [4],546 to 4476 ng·h/mL
same,Cmax,[2]; [4],349 to 2960 ng/g
same,T1/2 in liver,[2]; [4],4.57 to 10.1 h
same,T1/2 in plasma,[2]; [4],6.25 to 7.06 h
same,mean Cmax in plasma,[2]; [4],577 to 1230 ng/mL
same,AUClast in liver,"[2]; rat, in vivo, iv, 1.5 mg/kg",2598 to 18434 ng·h/g
same,Kp at 0.25 hr,"in vivo; male, SD",29.2
same,Kp at 1 hr,"in vivo; male, SD",27.9
same,Kp at 2 hr,"in vivo; male, SD",23
same,Kp at 0.25 hr,"in vivo; male, SD, 113 IV 1.4 mg/kg, SD rats, 0.25 hr, mean",22.7
same,Kp at 1 hr,"in vivo; male, SD, 113 IV 1.4 mg/kg, SD rats, 1 hr, individual",21.7
same,Kp at 2 hr,"in vivo; male, SD, 113 IV 1.4 mg/kg, SD rats, 2 hr, individual",45.7
same,concentration at 0.25 hr,in vivo; [5],727 ng/g
same,concentration at 1 hr,in vivo; [5],902 ng/g
same,concentration at 2 hr,in vivo; [5],998 ng/g
same,concentration at 6 hr,in vivo; [5],526 ng/g
same,concentration at 10 hr,in vivo; [5],288 ng/g
same,concentration at 24 hr,in vivo; [5],66.9 ng/g
same,concentration at 2 hr,"in vivo; male, SD, plasma concentration of Endothal",30.4 ng/mL
same,AUC(0-last) in liver,in vivo,8086 ng·h/g
same,AUC(0-∞) in liver,in vivo,8678 ng·h/g
